# Where a name gives a salt, the structure may show the parent alone.
# Legend:
# [1] = LD50 i.p. in mice, calculated by Litchfield-Wilcoxon method; settings: mouse, in vivo, ip, read-out: ID50 (the source's name)
# Description: (§1) The concentration of the compound in micromoles inhibiting platelet aggregation by 50 percent (I50) and LD50 which was calculated by Litchfield-Wilcoxon method are shown in Table 1.
# [2] = test system: rabbit blood platelet aggregation; experiment: inhibition of collagen-induced platelet aggregation in rabbit platelet-rich plasma (turbidometric method of Born); type: cell-based; settings: Oryctolagus cuniculus, collagen 10 to 15 μg/ml, 37° C., 3 min preincubation, read-out: I50 (concentration inhibiting platelet aggregation by 50 percent)
# Description: Evaluation of the compounds of this invention for their activity against platelet aggregation was carried out according to a turbidometric method described by G. V. R. Born, Nature 194 927 (1962). Platelet aggregation was measured using platelet-rich plasma prepared from citrated blood which was collected from a carotid artery of male white rabbits of Japanese native kind. A suspension of collagen (bovine Achilles tendon collagen, Sigma) in saline was used to cause platelet aggregation. The aggregation of rabbit blood platelet was induced by adding the suspension of collagen to give 10 to 15 μg collagen per milliliter. At this time, the tests were conducted at 37° C. at levels of 4×10^5 platelet/mm^3. A solution of compounds of this invention in saline was added to the platelet-rich plasma. After three minutes of preincubation with the platelet-rich plasma, collagen was added to cause platelet aggregation. Percent inhibition was calculated by comparison with controls.
# Using the above procedure, the compounds of this invention were compared to aspirin.
# as §1
SMILES,LD50 [1],IC50 [2]
"CN(C)CCCCOc1ccccc1CCc1ccccc1 [Example 3, 2-(4-dimethylaminobutoxy)bibenzyl]",215 mg/kg,600 nM
"CN(C)CCCOc1ccccc1CCc1ccccc1Cl [Example 52, 2-(3-dimethylaminopropoxy)-2'-chlorobibenzyl]",–,630 nM
"COc1cccc(CCc2ccccc2OCCCCN2CCN(CCO)CC2)c1 [Example 35, 2-{4-[4-(2-hydroxyethyl)-1-piperazinyl]butoxy}-3'-methoxybibenzyl]",–,1200 nM
"CN(C)CCCCOc1ccccc1CCc1ccccc1Cl.Cl [Example 47, 2-(4-dimethylaminobutoxy)-2'-chlorobibenzyl hydrochloride]",170 mg/kg,500 nM
"CN(C)CCCCCCOc1ccccc1CCc1ccccc1 [Example 5, 2-(6-dimethylaminohexyloxy)bibenzyl]",–,1000 nM
"Cc1ccccc1CCc1ccccc1OCCCCN(C)C [Example 61, 2-(4-dimethylaminobutoxy)-2'-methylbibenzyl]",–,1100 nM
"CC(=O)Oc1ccccc1C(=O)O [Aspirin, aspirin, reference compound]",–,25000 nM
"NC(=O)C1CCN(CCCOc2ccccc2CCc2ccccc2)CC1 [Example 30, 2-[3-(4-carbamoylpiperidino)propoxy]bibenzyl]",–,2000 nM
"CN(C)CCCOc1ccccc1CCc1ccc(Cl)cc1 [Example 44, 2-(3-dimethylaminopropoxy)-4'-chlorobibenzyl]",185 mg/kg,600 nM
"CCOc1ccccc1CCc1ccccc1OCCCCN(CC)CC [Example 37, 2-(4-diethylaminobutoxy)-2'-ethoxybibenzyl]",–,1000 nM
"CN(C)CCCOc1ccccc1CCc1ccc(N(C)C)cc1 [Example 64, 2-(3-dimethylaminopropoxy)-4'-dimethylaminobibenzyl]",–,350 nM
"CN(C)CCCOc1ccccc1CCc1ccc(Cl)c(Cl)c1.Cl [Example 54, 2-(3-dimethylaminopropoxy)-3',4'-dichlorobibenzyl hydrochloride]",250 mg/kg,600 nM
"CNCCCCOc1ccccc1CCc1ccccc1 [Example 6, 2-(4-methylaminobutoxy)bibenzyl]",–,7000 nM
"COc1cccc(CCc2ccccc2OCCCCN(C)C)c1 [Example 34, 2-(4-dimethylaminobutoxy)-3'-methoxybibenzyl]",200 mg/kg,550 nM
"c1ccc(CCc2ccccc2OCCCCN2CCOCC2)cc1 [Example 10, 2-(4-morpholinobutoxy)bibenzyl]",–,10000 nM
"NC(=O)C1CCN(CCOc2ccccc2CCc2ccccc2)CC1 [Example 25, 2-[2-(4-carbamoylpiperidino)ethoxy]bibenzyl]",–,2500 nM
"CCN(CC)CCCCCOc1ccccc1CCc1ccccc1 [Example 18, 2-(5-diethylaminopentyloxy)bibenzyl]",–,1000 nM
"c1ccc(CCc2ccccc2OCCCCN2CCCC2)cc1 [Example 12, 2-[4-(1-pyrrolidinyl)butoxy]bibenzyl]",–,700 nM
"Cl.O=C(O)C1CCN(CCCCOc2ccccc2CCc2ccccc2)CC1 [Example 22, 2-[4-(4-carboxypiperidino)butoxy]bibenzyl hydrochloride]",500 mg/kg,5500 nM
"NC(=O)C1CCCN(CCCCOc2ccccc2CCc2ccccc2)C1 (stereo not shown) [Example 29, 2-[4-(3-carbamoylpiperidino)butoxy]bibenzyl]",270 mg/kg,1400 nM
"CN(C)C(=O)C1CCN(CCCCOc2ccccc2CCc2ccccc2)CC1 [Example 26, 2-[4-(4-dimethylcarbamoylpiperidino)butoxy]bibenzyl hydrochloride]",–,3000 nM
"COc1ccccc1CCc1ccccc1OCCCCN(C)C [Example 32, 2-(4-dimethylaminobutoxy)-2'-methoxybibenzyl]",250 mg/kg,900 nM
"CCCCN(C)CCCCOc1ccccc1CCc1ccccc1 [Example 7, 2-[4-(N-methyl-N-butylamino)butoxy]bibenzyl]",–,3000 nM
"NC(=O)C1CCN(CCCCOc2ccccc2CCc2ccccc2)CC1 [Example 24, 2-[4-(4-carbamoylpiperidino)butoxy]bibenzyl]",500 mg/kg,1500 nM
"NC(=O)C1CCN(CCCCOc2ccccc2CCc2ccc(F)cc2)CC1 [Example 56, 2-[4-(4-carbamoylpiperidino)butoxy]-4'-fluorobibenzyl]",450 mg/kg,1300 nM

SMILES,LD50 [1],IC50 [2]
"CCN(CC)CCCCOc1ccccc1CCc1ccccc1 [Example 17, 2-(4-diethylaminobutoxy)bibenzyl]",–,800 nM
"CCN(CC)CCCCCCOc1ccccc1CCc1ccccc1 [Example 19, 2-(6-diethylaminohexyloxy)bibenzyl]",–,1000 nM
"c1ccc(CCc2ccccc2OCCCCN2CCCCC2)cc1 [Example 9, 2-(4-piperidinobutoxy)bibenzyl]",–,1000 nM
"CN(C)CCCOc1ccc(CCc2ccccc2)cc1 [Example 20, 4-(3-dimethylaminopropoxy)bibenzyl]",–,2000 nM
"CN(C)CCCCOc1ccccc1CCc1ccc(F)cc1 [Example 55, 2-(4-dimethylaminobutoxy)-4'-fluorobibenzyl]",185 mg/kg,750 nM
"CCNC(=O)C1CCN(CCCCOc2ccccc2CCc2ccccc2)CC1 [Example 27, 2-[4-(4-ethylcarbamoylpiperidino)butoxy]bibenzyl]",–,2500 nM
"OCCN(CCO)CCCCOc1ccccc1CCc1ccccc1 [Example 14, 2-[4-bis(2-hydroxyethyl)aminobutoxy]bibenzyl]",–,5000 nM
"Clc1ccc(CCc2ccccc2OCCCCN2CCCC2)cc1 [Example 46, 2-[4-(1-pyrrolidinyl)butoxy]-4'-chlorobibenzyl]",–,1300 nM
"COc1ccccc1CCc1ccccc1OCCN(C)C [Example 31, 2-(2-dimethylaminoethoxy)-2'-methoxybibenzyl]",–,600 nM
"COC(=O)c1ccccc1CCc1ccccc1OCCN(C)C [Example 41, 2-(2-dimethylaminoethoxy)-2'-methoxycarbonylbibenzyl]",130 mg/kg,500 nM
"CN(C)CCCCOc1ccc(CCc2ccccc2)cc1 [Example 21, 4-(4-dimethylaminobutoxy)bibenzyl]",–,2000 nM
"CN(C)CCOc1ccccc1CCc1ccccc1 [Example 1, 2-(2-dimethylaminoethoxy)bibenzyl hydrochloride]",165 mg/kg,600 nM
"CCN(CC)CCCOc1ccccc1CCc1ccccc1 [Example 16, 2-(3-diethylaminopropoxy)bibenzyl]",187 mg/kg,500 nM
"CN(C)CCCCOc1ccccc1CCc1ccccc1O [Example 38, 2-(4-dimethylaminobutoxy)-2'-hydroxybibenzyl]",167 mg/kg,900 nM
"CN(C)CCCOc1ccccc1CCc1ccccc1 [Example 2, 2-(3-dimethylaminopropoxy)bibenzyl hydrochloride]",–,600 nM
"COc1cccc(CCc2ccccc2)c1OCCCCN(C)C [Example 67, 2-(4-dimethylaminobutoxy)-3-methoxybibenzyl]",–,3000 nM
"CN(C)CCCCCOc1ccccc1CCc1ccccc1 [Example 4, 2-(5-dimethylaminopentyloxy)bibenzyl]",205 mg/kg,800 nM
"CCN(CC)CCOc1ccccc1CCc1ccccc1 [Example 15, 2-(2-diethylaminoethoxy)bibenzyl]",–,500 nM
"OCCN1CCN(CCCCOc2ccccc2CCc2ccccc2)CC1 [Example 13, 2-{4-[4-(2-hydroxyethyl)-1-piperazinyl]butoxy}bibenzyl]",–,3000 nM
"Cc1ccccc1CCc1ccccc1OCCCCN1CCC(C(N)=O)CC1 [Example 63, 2-[4-(4-carbamoylpiperidino)butoxy]-2'-methylbibenzyl]",–,2000 nM
"OC1CCN(CCCCOc2ccccc2CCc2ccc(F)cc2)CC1 [Example 58, 2-[4-(4-hydroxypiperidino)butoxy]-4'-fluorobibenzyl]",–,1100 nM
"OCCN1CCN(CCCCOc2ccccc2CCc2ccc(Cl)cc2)CC1 [Example 45, 2-{4-[4-(2-hydroxyethyl)-1-piperazinyl]butoxy}-4'-chlorobibenzyl]",–,3000 nM
"CN(C)CCCCCCOc1ccccc1CCc1ccccc1Cl [Example 51, 2-(6-dimethylaminohexyloxy)-2'-chlorobibenzyl]",250 mg/kg,800 nM
"CN(CCO)CCCCOc1ccccc1CCc1ccccc1 [Example 8, 2-{4-[N-methyl-N-(2-hydroxyethyl)amino]butoxy}bibenzyl]",–,2000 nM
"c1ccc(CCc2ccccc2OCCCCN2CCNCC2)cc1 [Example 11, 2-[4-(1-piperazinyl)butoxy]bibenzyl dihydrochloride]",–,2000 nM

# — patent US4323568A, “Pharmaceutically active (omega-aminoalkoxy)bibenzyls” (Mitsubishi Chemical Industries Limited, priority 1977, dated 1982)
